Earlier results as cited in US20070032554A1, “Treatment of stuttering and other communication disorders with norepinephrine reuptake inhibitors” (ELILILLY AND COMPANY a Corporation, priority 2003, published 2007).

Conditions: for side effects / tolerability: literature reports, treatment of stuttering; for effect on stuttering: literature reports in persons who stutter

In the case of `Fc1ccc([C@@H]2CCNC[C@H]2COc2ccc3c(c2)OCO3)cc1` [Paroxetine], the “side effects / tolerability” value is listed as “a number of undesirable side effects”.
For `Cc1nc2n(c(=O)c1CCN1CCC(c3noc4cc(F)ccc34)CC1)CCCC2` [risperidone], the effect on stuttering is listed as “may be effective” and the “side effects / tolerability” value is listed as “sedation was common”.
For `O=C(CCCN1CCC(O)(c2ccc(Cl)cc2)CC1)c1ccc(F)cc1` [haloperidol], the effect on stuttering is given as “reduce the symptoms of stuttering” and the “side effects / tolerability” value is given as “not well tolerated”.
In the case of `CN[C@H]1CC[C@@H](c2ccc(Cl)c(Cl)c2)c2ccccc21` [Sertraline], the “side effects / tolerability” value is listed as “a number of undesirable side effects”.
For `Cc1cc2c(s1)Nc1ccccc1N=C2N1CCN(C)CC1` [Olanzapine], the “side effects / tolerability” value is given as “mostly limited to slight weight gain and drowsiness”.
